We go through six compounds from patent EP3207939A2, “USE OF A PROTEIN/PEPTIDE COMPLEX FOR TREATING AND PREVENTING ATHEROSCLEROSIS, METHOD FOR TREATING AND PREVENTING ATHEROSCLEROSIS (VARIANTS)” (Diamondzlite Limited, priority 2014, dated 2016).

For series [1] the following is noted: rabbits, single peroral administration; cited from earlier work.
For series [2] the following is noted: cited from earlier work.
For series [3] the following is noted: rabbits, 28 days, food with 1% cholesterol, 0.6 g of beta-carotene per 1 kg of food; cited from earlier work.
The conditions of series [4]: hypersensitive rats, 125-500 mg per 1 kg of food with cholesterol-rich food, 44 days; cited from earlier work.
The conditions of series [5]: guinea pigs, 12 weeks, cited from earlier work.
The conditions of series [6]: smoking people, 20 mg/day, 14 weeks; cited from earlier work.
The test system of series [7] is cultured atherosclerotic cells. Kind of series: Inclusion of [3H] thymidine (proliferative activity) in cultured atherosclerotic cells. It counts as cell-based, human. As to the method:
For research on the impact of the original PPC and PPPC with the conditional name "Cellex" (hereinafter - Cellex, as a modifier and activator of biological reactions) on the level of reduction of the atherogenic potential of blood serum of patients having atherosclerosis according to the known method, a primary culture of subendothelial cells of the human's aorta was obtained from various sections of the intima of the thoracic aorta of men and women aged 40-65 years within 1.5-3 hours after sudden death, which differed by the degree of atherosclerotic disease, then it was treated by collagenase, and the cells were cultured.

Series [8] deals with cells extracted from normal or damaged sections of the intima of human's aorta. Kind of series: Determination of the synthesis of collagen ([3H]-proline inclusion). It counts as cell-based. As to conditions: Verapamil 5 x 10^-5 M; control 2500 ± 102 dpm/103. On the procedure: Cells extracted from normal or damaged sections of the intima of human's aorta were incubated for 24 hours in the presence of 5 µCi/ml [3H]-proline. Upon completion of incubation, inclusion of marked proline into the culture medium fraction treated by collagenase was determined by the method of Peterkofsky and Diegelmann. Table 1. Influence of lipostabil, lovastatin and cellex on the cholesterol content in atherosclerotic cells of the intima of human's aorta in vitro.

Series [9] deals with primary culture of atherosclerotic cells. Kind of series: Ex vivo model: volunteers' blood serum added to primary culture of atherosclerotic cells, intracellular cholesterol. The class given is cell-based, human. As to the method: For the ex vivo model, blood was taken from volunteers immediately prior to Cellex intake and after the corresponding intervals after the intranasal intake (after 2, 4, and 6 hours for screening studies and assessment of the short-term effect, as well as after 4, 8, 12, and 24 hours for the assessment of duration of the effect).
Volunteers took PPC - Cellex at once in the form of an intranasal spray in complex with polynucleotides in the form of sodium salts of DNA - PPPC, 400 µg of a 0.1% solution (per total protein and DNA) - 2 injections of 200 µg in each nasal duct in the morning, the drug for comparison was Verapamil in the dose of 400 mg; the control group received intranasally 50 mM of glycine-phosphate buffer solution with the same pH (7.8) and with the same regimen. Blood was taken prior to drug or control intake (time "0") and 1, 2, 4, and 8 hours after the intake. Samples were prepared from the bloodserum, and serum samples were added to the primary culture of atherosclerotic cells. […] Consequently, starting from the 1 st hour after single intake of the claimed drug and from the 2nd hour after Verapamil intake, blood serum acquires antiatherosclerotic properties manifested in the contribution to reverse cholesterol transport from atherosclerotic cells. Antiatherosclerotic properties of serum are preserved for at least 12 hours after Verapamil intake and up to 18 hours after intake of the claimed drug. Table 5. Comparative table of the antiatherogenic action of Cellex and Verapamil in the ex vivo model.

The subject of series [10] is atherosclerotic cells of the intima of human's aorta. As to the kind of experiment: Intracellular cholesterol and lipid content in cultured atherosclerotic cells, in vitro model.
[11] abbreviates: long-term administration, daily dose of 3 g.

Read-outs that look alike come from different tables or passages of the source.

`CC(C)=CCC/C(C)=C/C=C/C(C)=C/C=C/C(C)=C/C=C/C=C(C)/C=C/C=C(C)/C=C/C=C(\C)CCC=C(C)C` [lycopene]: in series [1], the “return of blood serum concentration to the initial level” value is 24 h and the “time of maximum concentration in blood serum” value is 8 h.
With `N[C@H](Cc1cc(I)c(Oc2cc(I)c(O)c(I)c2)c(I)c1)C(=O)O` [D-thyroxine], the “reduction of the concentration of low-density lipoproteins” value in series [2] (daily dose of 4-8 mg) was 20%.
On to `CC1=C(/C=C/C(C)=C/C=C/C(C)=C/C=C/C=C(C)/C=C/C=C(C)/C=C/C2=C(C)CCCC2(C)C)C(C)(C)CCC1` [beta-carotene], for which, in series [3], the “LDL resistance to oxidation” value is given as “no impact of beta-carotene on LDL resistance to oxidation was detected” and the “elasticity of endothelial vessels” value is reported as “elasticity of endothelial vessels was preserved”. Also, the “cholesterol and triglyceride levels in blood serum” value in [4] is given as “dose-dependent reduction”. Further, the “sizes of sclerotic clots in aorta” value in [5] (50 mg of beta-carotene/100 g of food) is “significant reduction”. The “cholesterol and triglyceride levels in blood serum” value in [5] (daily 0.2% cholesterol and 15-30 mg of beta-carotene) is recorded as “no verifiable differences”. In series [6], the “beta-carotene level in blood serum increased” value was 15 times and the “level of lipoproteins in blood serum” value is listed as “no visible effect was identified”.
`COc1ccc(CCN(C)CCCC(C#N)(c2ccc(OC)c(OC)c2)C(C)C)cc1OC` (centres unmarked) [Verapamil]: the “Inclusion of [3H] thymidine” value is 20 ± 2 % of control in [7] (Verapamil 10^-4 M), 34 ± 2 % of control in [7] (Verapamil 10^-5 M), 50 ± 2 % of control in series [7] (Verapamil 10^-6 M) and 86 ± 7 % of control in [7] (Verapamil 10^-7 M). Further, the Synthesis of collagen in series [8] is 74 ± 5 % of control. In addition, the “Antiatherosclerotic properties of serum are preserved” value in series [9] (after single intake) is “at least 12 hours”. Also, the “blood serum acquires antiatherosclerotic properties, starting from” value in series [9] (after single intake) stood at 2 h. The Intracellular cholesterol content is 97 ± 10 % of control in series [9] (serum 1 hr after Verapamil 400 mg, control 221 ± 13 µg cholesterol per 1 mg cellular protein); 84 ± 6 % of control in series [9] (serum 2 hr after Verapamil 400 mg); 77 ± 8 % of control in [9] (serum 4 hr after Verapamil 400 mg); 85 ± 4 % of control in series [9] (serum 8 hr after Verapamil 400 mg); 90 ± 6 % of control in series [9] (serum 12 hr after Verapamil 400 mg); 104 ± 4 % of control in series [9] (serum 18 hr after Verapamil 400 mg). Moreover, the Triglycerides in series [10] (Verapamil 5 x 10^-5 M, control 12.1 ± 1.7 µg/105) is recorded as 76 ± 2 % of control. For the same compound, in [10] (Verapamil 5 x 10^-5 M, control 46.8 ± 5.3 µg/105), the Free cholesterol is recorded as 90 ± 8 % of control. The Phospholipids in series [10] (Verapamil 5 x 10^-5 M, control 71.4 ± 10.9 µg/105) is on record as 61 ± 8 % of control. Moreover, the Total cholesterol in series [10] (Verapamil 10^-5 M) is 61 ± 4 % of control; in [10] (Verapamil 10^-6 M) it was 82 ± 8 % of control; in series [10] (Verapamil 10^-7 M, control 57.4 ± 1.2 µg/105), 104 ± 5 % of control.
As for `CC[C@H](C)C(=O)O[C@H]1C[C@@H](C)C=C2C=C[C@H](C)[C@H](CC[C@@H]3C[C@@H](O)CC(=O)O3)[C@H]21` [Lovastatin], the “Content of intracellular cholesterol” value in series [10] (concentration 10^-6 M, control 105 ± 11, average of three independent experiments) came out at 110 ± 10 µg/mg.
Take `O=C(O)c1cccnc1` [nicotinic acid]: in [2] (setting [11]), the “cholesterol level in blood serum lowered” value was 10% and the “triglycerides in blood serum lowered” value is on record as 20%.
